Source: US4382142A, “Thiadiazole derivatives and process for preparing same” (Kowa Co., Ltd., priority 1978, dated 1983)
Where a name gives a salt, the structure may show the parent alone. Read-outs that look alike come from different tables or passages of the source.

Experiments:
P388 leukemia = experiment: Antitumor test: survival of CDF1 mice inoculated intraperitoneally with P388 leukemia; format: in vivo; conditions: Mus musculus, ip, i.p., 24 hours and 5 days after inoculation, 10^6 P388 i.p., read-out: Survival Effect (survival days of treated relative to control animals); for response vs control in vivo at 200 mg/kg: 200 mg/kg/day; for response vs control in vivo at 400 mg/kg: 400 mg/kg/day
Experimental: Each experimental group was composed of six CDF1 mice. The mice were
inoculated intraperitoneally with 10^6 P388 leukemia, and the test
compounds dissolved in a physiological salt solution were administered
intraperitoneally to the animals 24 hours and 5 days, respectively, after
the inoculation. The survival effect of each of the compounds was
expressed by the percentage of the survival days of the treated animals i
each group relative to those of the control animals.

[1] = Acute toxicity (LD50, Litchfield-Wilcoxon method) after intraperitoneal injection in ddy mice; conditions: mouse, in vivo, ip
Experimental: The median lethal dose (LD50) of each of the test compounds was
determined by the LitchfieldWilcoxon method after the intraperitoneal
injection of the compound into ddy mice.

[2] = intraperitoneal, ddy mice, read-out: Acute Toxicity LD50

`CC(C)[C@@H](N)C(=O)Nc1nncs1` [G, 2D-Valylamino-1,3,4-thiadiazole.hydrochloride] showed a response vs control in vivo at 200 mg/kg (P388 leukemia) of 93%, a response vs control in vivo at 400 mg/kg (P388 leukemia) of 102% and an LD50 [1] greater than 500 mg/kg.

In the case of `CCC(C)C(N)C(=O)Nc1nncs1` (stereo not drawn) [D, 2DL-Isoleucylamino-1,3,4-thiadiazole.dihydrochloride], the response vs control in vivo at 200 mg/kg (P388 leukemia) is reported as 157% and the LD50 [1] is reported as 357 mg/kg.

For `N[C@@H](Cc1ccccc1)C(=O)Nc1nncs1` [M, 2L-Phenylalanylamino-1,3,4-thiadiazole.hydrobromide], the response vs control in vivo at 200 mg/kg (P388 leukemia) was 145%, the response vs control in vivo at 400 mg/kg (P388 leukemia) was 156% and the LD50 [1, 2] was 1200 mg/kg.

For `CC(C)[C@H](N)C(=O)Nc1nncs1` [F, 2L-Valylamino-1,3,4-thiadiazole.hydrochloride], the response vs control in vivo at 200 mg/kg (P388 leukemia) was 183%, the response vs control in vivo at 400 mg/kg (P388 leukemia) was 190% and the LD50 [1] was greater than 500 mg/kg.

In the case of `CC(C)C[C@H](N)C(=O)Nc1nncs1` [B, 2L-Leucylamino-1,3,4-thiadiazole.hydrochloride], the response vs control in vivo at 200 mg/kg (P388 leukemia) is reported as 144%, the response vs control in vivo at 400 mg/kg (P388 leukemia) is reported as 161% and the LD50 [1] is reported as greater than 500 mg/kg.

Work on `CC(C)C[C@@H](N)C(=O)Nc1nncs1` [C, 2D-Leucylamino-1,3,4-thiadiazole.hydrochloride] yielded a response vs control in vivo at 200 mg/kg (P388 leukemia) of 116%, a response vs control in vivo at 400 mg/kg (P388 leukemia) of 157% and an LD50 [1] greater than 500 mg/kg.

For `N[C@@H](CC(=O)O)C(=O)Nc1nncs1` [K, 2L-Aspartylamino-1,3,4-thiadiazole.monohydrate], the response vs control in vivo at 460 mg/kg (P388 leukemia; 460 mg/kg/day) was 116%, the response vs control in vivo at 600 mg/kg (P388 leukemia; 600 mg/kg/day) was 119% and the LD50 [1] was greater than 1600 mg/kg.

`N[C@@H](Cc1c[nH]c2ccccc12)C(=O)Nc1nncs1` [L, 2L-Tryptophylamino-1,3,4-thiadiazole.hydrochloride] showed a response vs control in vivo at 200 mg/kg (P388 leukemia) of 143%, a response vs control in vivo at 400 mg/kg (P388 leukemia) of 151% and an LD50 [1, 2] of 1200 mg/kg.

`NC(C(=O)Nc1nncs1)c1ccccc1` (stereo not drawn) [I, 2Dl-Phenylglycylamino-1,3,4-thiadiazole.hydrobromide] gave a response vs control in vivo at 200 mg/kg (P388 leukemia) of 125%, a response vs control in vivo at 400 mg/kg (P388 leukemia) of 146% and an LD50 [1] greater than 1600 mg/kg.

For `NC1(C(=O)Nc2nncs2)CCCC1` [J, 2Cycloleucylamino-1,3,4-thiadiazole.hydrochloride], the response vs control in vivo at 100 mg/kg (P388 leukemia; 100 mg/kg/day) was 153% and the LD50 [1] was 165 mg/kg.

In the case of `CC(C)C(N)C(=O)Nc1nncs1` (stereo not drawn) [E, 2DL-Valylamino-1,3,4-thiadiazole.hydrochloride], the response vs control in vivo at 200 mg/kg (P388 leukemia) is reported as 143%, the response vs control in vivo at 400 mg/kg (P388 leukemia) is reported as 155% and the LD50 [1] is reported as greater than 1600 mg/kg.

Compound `CC(C)CC(N)C(=O)Nc1nncs1` (stereo not drawn) [A, 2DL-Leucylamino-1,3,4-thiadiazole.hydrochloride] has a response vs control in vivo at 200 mg/kg (P388 leukemia) of 141%, a response vs control in vivo at 400 mg/kg (P388 leukemia) of 154% and an LD50 [1] greater than 1600 mg/kg.

`CSCCC(N)C(=O)Nc1nncs1` (stereo not drawn) [H, 2DL-Methionylamino-1,3,4-thiadiazole.hydrochloride] showed a response vs control in vivo at 200 mg/kg (P388 leukemia) of 121%, a response vs control in vivo at 400 mg/kg (P388 leukemia) of 124% and an LD50 [1] greater than 1600 mg/kg.
